Reference: patent EP4029501A1, “COMBINATION OF POLYAROMATIC UREA DERIVATIVES AND GLUCOCORTICOID OR HDAC INHIBITOR FOR THE TREATMENT OF DISEASES OR CONDITIONS ASSOCIATED WITH MUSCLE CELLS AND/OR SATELLITE CELLS” (Anagenesis Biotechnologies, priority 2021, dated 2022)
Where two headings read alike, the source gives them in different places.

Legend:
Format in all cases: cell-based, human
[1] = test system: muscle progenitors derived from DMD hiPSC; test: Dose response assay of combination treatments with Givinostat or Prednisolone: total myotube area; conditions: for improvement of potency: versus alone; for potency: change in words
Text: (§1) • Figure 1 - the workflow of the myotube assay, aiming at monitoring myogenic activity of compounds and effect on satellite-like cells. • Figure 2 - the myogenic activity of compound (i) in a dose-response assay, as shown by an increase of the total myotube surface/well upon increase of compound concentration. • Figure 3 - the positive effect on satellite-like cells of compound (i) in a dose-response assay, as shown by the increase of Pax7-positive cell percentage upon increase of compound concentration. • Figure 4 - representative images for the dose-response of the total myotube area readout for compound (i), corresponding to Figure 2. • Figure 5 - representative images for the dose-response of the percentage of Pax7-positive cell readout for compound (i), corresponding to Figure 3. • Figure 6 - Dose-response curve on muscle progenitors derived from DMD hiPSC. Treatment of muscle progenitors derived from DMD hiPSC with Prednisolone or Givinostat alone inducing a beneficial effect on α-actinin expression (representative of the myotube surface) and a loss of nearly 50 % of Pax7 positive cells (representative of the population of satellite cells) in a dose-dependent manner. The highest concentration represented is 10 µM. The arrows show the point a 0.3 µM. Efficacy values correspond to the highest score of normalized myotube surface (y-axis). Activity values correspond to the half maximal effective concentration (EC50; x-axis). The curve fits were calculated using a 4-parameter logistic regression model (Graphpad PRISM software). Error bars show standard deviation (SD). The picture on the right panel is representative of the highest myotube surface value of the dose-response curve. • Figures 7-9 - Dose-response curve on muscle progenitors derived from DMD hiPSC. Treatment in a dose-dependent manner of muscle progenitors derived from DMD hiPSC with indicated compound alone or with combination with Prednisolone or Givinostat at 0.3 µM. The combination induced an improvement of myogenic capabilities seen with α-actinin expression (representative of the myotube surface) and harbor no worsening of the Pax7 positive cells (representative of the population of satellite cells) compared to Prednisolone or Givinostat alone. The highest concentration of DRC is 10 µM.
Efficacy values correspond to the highest score of normalized myotube surface (y-axis). Activity values correspond to the half maximal effective concentration (EC50; x-axis). The curve fits were calculated using a 4-parameter logistic regression model (Graphpad PRISM software). Error bars show standard deviation (SD). The picture on the right panel is representative of the highest myotube surface value of the dose-response curve.
(§2) Figure 1 provides an example of a Myotube assay workflow. At day 0, hMP are thawed and 3.1 million cells are plated into a T75-flask coated with hESC-qualified Matrigel™ (Corning) in SkGM proliferating medium (PromoCells), supplemented with 5 µM Y-27632 (Tocris Bioscience). On day 2, SkGM proliferating medium is refreshed. On day 4, hMP are harvested and transferred into a 384-well plate coated with collagen type I at a density of 3500 cells/well in a DMEM-based medium, containing 5% of knockout serum replacement (Gibco), 1% PenStrep (Gibco), 1% MEM NEAA (Gibco) and 0.1 mM 2-mercaptoethanol (Gibco) (hereafter "K5 medium") and 5 µM Y-27632. Compounds to be tested are then added in the medium and incubated for 3 days at 37°C. On day 7, cells are fixed and immunostained. For example, myotubes (alpha-actinin staining) and satellite-like (Pax7 staining) cells can be analyzed for total myotube area per well or Pax7-positive cell quantification.
DMD hMPs were put in the Myotube assay according to the workflow described in example 2.1. […]

[2] = test system: muscle progenitors derived from DMD hiPSC; test: Myotube assay: total myotube area per well (alpha-actinin staining); conditions: for Emax / EC50: Homo sapiens, Myotube
Method in brief: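 DMD hiPSC-derived muscle progenitors (NCRM-1 background) plated at 3500 cells/well in K5 medium with 5 µM Y-27632, then exposed to compound at 1.5 nM–30 µM for 3 days at 37°C. Cells fixed on day 7, alpha-actinin-immunostained and total myotube area per well quantified; duplicates averaged, EC50 and normalized myotube area derived.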

[3] = test system: Pax7 positive cells; test: Dose response assay of combination treatments with Givinostat or Prednisolone: percentage of Pax7-positive cells
Text: as §1, §2
DMD hMPs were put in the Myotube assay according to the workflow described in example 2.1. In particular, Prednisolone (Sigma) or Givinostat (Exclusive Chemistry) were added in all conditions at a fixed concentration equal to 0.3 µM in combination with compounds az or bw or q tested in DRC at 8 concentrations ranging from 4.5 nM to 10 µM, starting from day 4. Also, as control, DRCs with the same range of concentrations were done with Prednisolone alone, Givinostat (figure 6) alone or compounds az or bw or q alone (figures 7 to 9). […]

[4] = test system: Pax7-positive cells; test: Myotube assay: Pax7-positive (satellite-like) cell quantification; design: key to Pax7: (-) : Depletes the pool of cells, while positively affects the myotubes; (+) : Maintains or increases the pool of cells, with at least 1 of the highest concentration known to be cytotoxic; (++) Maintains or increases the pool of cells, without any toxicity; conditions: for Pax7: comparative compounds, effect on pool of Pax7-positive cells
Text: The efficacy of said compound for use in treating, ameliorating, delaying, curing and/or preventing a disease or condition associated with muscle cells and/or satellite cells is positively correlated with the generation of myotubes (i.e. the increase of the area occupied by myotubes on the assay) and/or satellite cells (i.e. the increase of the number of satellite cells) in the assay after adding said compound. The generation of myotubes by the addition of said compound is expressed as the EC50 value, the concentration of said compound that corresponds with the half-maximal generation of myotubes, and the MA (normalized myotube area) value, the normalized area occupied by generated myotubes on the assay. […] Since muscle cells are formed from myotubes during myogenesis, the generation of myotubes in the assay is a good indicator of the ability of said compound to induce the formation of functional muscle cells in vivo. The number of satellite cells is measured as the percentage of Pax7 positive cells, relative to the total number of cells in the assay, as shown in Figure 3. The percentage of Pax7 is a good indicator of the ability of said compound to induce the formation of satellite cells which are able to play a role in muscle repair and regeneration in vivo.
DMD human induced pluripotent stem cells (hereafter "DMD hiPSC"), generated from the NCRM-1 hiPSC WT cell line by gene editing, or WT human induced pluripotent stem cells (hereafter "WT hiPSC"), being NCRM-1 hiPSC wt cell line, have been differentiated according to Chal et al. 2015, 2016, to produce muscle progenitors (hereafter "hMP"). The hMP population contains satellite-like cells (i.e Pax7-positive cells) and satellite cells' progenies (i.e. Myogenin-positive cells).
as §2
DMD hMP were put in the Myotube assay according to the workflow described in Example 2.1. In particular, compound (i) was added at concentrations ranging from 1.5 nM to 30 µM, starting from day 4. hMP were cultivated for three more days in presence of compound (i), then fixed and analyzed for percentage of Pax7-positive cells and nuclei number. Duplicates of each condition were averaged.
(-) : Depletes the pool of cells, while positively affects the myotubes; (+) : Maintains or increases the pool of cells, with at least 1 of the highest concentration known to be cytotoxic; and (++) Maintains or increases the pool of cells, without any toxicity.

[5] = DRC 4.5 nM to 10 µM in combination with Givinostat at 0.3 µM
[6] = DRC 4.5 nM to 10 µM in combination with Prednisolone at 0.3 µM
[7] = in combination with Givinostat at 0.3 µM
[8] = in combination with Prednisolone at 0.3 µM
[9] = 72 h, efficacy, MA = normalized Myotube Area, 3 days incubation, DMD or WT cell source not given
[10] = 72 h, myogenic activity, half-maximal generation of myotubes, 10 points dose-response 1.5 nM to 30 µM, 3 days, DMD or WT cell source not given
[11] = 72 h, comparative compounds, same assay as Table 3, NA: non active, read-out: MA
[12] = comparative compounds, same assay as Table 3, NA: non active

EC50 [2, 10] | EC50 [2, 12] | Compound | total myotube surface [1, 5] | total myotube surface [1, 6] | Emax [2, 9] | satellite cell population [3, 7] | Pax7 [4] | further results
500 to 1000 nM | – | Cc1ccc(-n2nc(C(C)(C)C)cc2NC(=O)Nc2ccc(Oc3ccnc4[nH]c(=O)cnc34)cc2C(F)(F)F)cc1 [(az), 1-(3-(tert-butyl)-1-(p-tolyl)-1H-pyrazol-5-yl)-3-(4-((3-oxo-3,4-dihydropyrido[2,3-b]pyrazin-8-yl)oxy)-2-(trifluoromethyl)phenyl)urea] | increased the total myotube surface | increased the total myotube surface | ≥ 75% | at least maintained | – | improvement of potency [1, 7]: two fold; improvement of potency [1, 8]: two fold; satellite cell population increase [3, 8]: 1.5 fold
< 500 nM | – | CSc1cc(Oc2ccnc3[nH]c(=O)cnc23)ccc1NC(=O)Nc1cc(C(C)(C)C)nn1-c1cccc(F)c1 [(bw), 1-(3-(tert-butyl)-1-(3-fluorophenyl)-1H-pyrazol-5-yl)-3-(2-(methylthio)-4-((3-oxo-3,4-dihydropyrido[2,3-b]pyrazin-8-yl)oxy)phenyl)urea] | increased the total myotube surface | increased the total myotube surface | ≥ 75% | the decrease of satellite cell pool which is only seen at high concentration of treatment with compound bw alone is slightly diminished | – | potency [1, 7]: improved; potency [1, 8]: slightly decreased; satellite cell pool ([3]; compound alone, DRC 4.5 nM to 10 µM): decrease of satellite cell pool which is only seen at high concentration; satellite cell population [3, 8]: the decrease of satellite cell pool which is only seen at high concentration of treatment with compound bw alone is slightly diminished
1000 to 5000 nM | – | CC(C)n1nc(C(C)(C)C)cc1NC(=O)Nc1ccc(Oc2ccnc3[nH]c(=O)cnc23)cc1F [(i), 1-(3-(tert-butyl)-1-isopropyl-1H-pyrazol-5-yl)-3-(2-fluoro-4-((3-oxo-3,4-dihydropyrido[2,3-b]pyrazin-8-yl)oxy)phenyl)urea] | – | – | 50 to 75% | – | – | myotube surface ([2]; DMD hMP, 10 increasing concentrations 1.5 nM to 30 µM, 3 days (figure 2)): dose-dependent increase of myotube surface; percentage of Pax7-positive cells ([4]; DMD hMP, 10 increasing concentrations 1.5 nM to 30 µM, 3 days (figure 3)): dose-dependent increase percentage of Pax7-positive cells
1000 to 5000 nM | – | CC(C)(C)c1cc(NC(=O)Nc2ccc(Oc3ccnc4[nH]c(=O)cnc34)cc2F)sn1 [(q), 1-(3-(tert-butyl)isothiazol-5-yl)-3-(2-fluoro-4-((3-oxo-3,4-dihydropyrido[2,3-b]pyrazin-8-yl)oxy)phenyl)urea] | strongly increased | strongly increased | 50 to 75% | maintenance of the satellite cells in all conditions | – | improvement of potency [1, 7]: 1.4 fold; improvement of potency [1, 8]: 5 fold; satellite cell population [3, 8]: maintenance of the satellite cells in all conditions
– | ≥ 5000 nM | Cc1ccc(-n2nc(C(C)(C)C)cc2NC(=O)Nc2ccc(OCCN3CCOCC3)c3ccccc23)cc1 [BIRB-796] | – | – | – | – | ++ | Emax [2, 11]: ≥ 75%
– | 500 to 1000 nM | CC(C)(C)c1cc(NC(=O)Nc2ccc(Oc3ccnc4[nH]c(=O)cnc34)cc2F)n(-c2ccccc2)n1 [CCT196969, reference compound] | – | – | – | – | + | MA [2, 12]: ++ (++: 50% ≤ MA <75%)
– | 1000 to 5000 nM | CNC(=O)c1cc(Oc2ccc(NC(=O)Nc3cc(C(C)(C)C)nn3-c3ccc4ncccc4c3)c(F)c2)ccn1 [Rebastinib, reference compound] | – | – | – | – | + | –
– | ≥ 5000 nM | CNC(=O)c1cc(Oc2ccc(NC(=O)Nc3ccc(Cl)c(C(F)(F)F)c3)cc2)ccn1 [Sorafenib] | – | – | – | – | ++ | Emax [2, 11]: 25 to 50%
